Reference: ChEMBL document CHEMBL1921788, “Development of melanoma-targeted polymer micelles by conjugation of a melanocortin 1 receptor (MC1R) specific ligand” (J Med Chem, 2011)
Non-standard residues stand in square brackets, D forms with d. Residues, ends and D or L forms follow the SMILES beside them. d2Nal = N[C@H](Cc1ccc2ccccc2c1)C(=O)O; Nle = CCCC[C@H](N)C(=O)O

Tested on: HEK293
Assay: Selectivity ratio of Ki for human MC5 receptor expressed in human HEK293 cells to Ki for human MC1 receptor expressed in human HCT116 cells
Type: cell-based

## CCCC[C@H](NC(=O)[C@@H](NC(=O)[C@@H](N)Cc1ccc(O)cc1)C(C)C)C(=O)NCC(=O)N[C@@H](Cc1cnc[nH]1)C(=O)N[C@H](Cc1ccc2ccccc2c1)C(=O)N[C@@H](CCCNC(=N)N)C(=O)N[C@H](Cc1ccccc1)C(=O)N[C@@H](CC(=O)O)C(=O)N[C@@H](CCCNC(=N)N)C(=O)N[C@@H](Cc1ccccc1)C(=O)NCC(N)=O (H-YV[Nle]GH[d2Nal]R[dF]DRFG-NH2)
  Ratio Ki: 0.13
